Assays:
[1] = Photochromic properties of polymer (2 mm thick) containing the chromene compound, xenon lamp irradiation 120 seconds; type: physicochemical; set-up: key to Color density ε(120)-ε(0): absorbance at λmax after 120 s irradiation minus before, ε(120)-ε(0); details: for Color density ε(120)-ε(0): 120 seconds irradiation, 20° C.±1° C.; for Color density ε(120)-ε(0) / ε(0): absorbancy of the polymer not irradiated (initial color): at λmax; for Color fading rate t1/2: time until absorbancy decreases to one-half of [ε(120)-ε(0)]: after 120 seconds irradiation; for Maximum absorption wavelength λMax (developed color tone): polymer after developing color
Protocol: (§1) 0.05 Parts of the chromene compound obtained in Example 1 was added to 70 parts of a tetraethylene glycol dimethacrylate, 15 parts of a triethylene glycol dimethacrylate, 10 parts of a glycidyl methacrylate and 5 parts of a 2-hydroethyl methacrylate, and was mixed to a sufficient degree. The mixture solution was poured into a mold constituted by a glass plate and a gasket made from an ethylene/vinyl acetate copolymer and then polymerized. The polymerization was conducted by using an air furnace while gradually raising the temperature up to 30° C. to 90° C. over a period of 18 hours, the temperature being maintained at 90° C. for two hours. After the polymerization, the polymer was taken out from the glass mold.
The obtained polymer (2 mm thick) was irradiated with light from a xenon lamp L-2480 (300 W) SHL-100 manufactured by Hamamatsu Photonics Co. through an Aero Mass filter (manufactured by Corning Co.) for 120 seconds under the conditions of 20° C.±1° C., beam intensities of 365 nm=2.4 mW/cm^2 and […]=24 μW/cm^2 on the polymer surface to develop color and to measure photochromic properties. The photochromic properties were expressed as described below.
Maximum absorption wavelength (λmax): λmax of the polymer after it has developed color was found by using a spectrophotometer (instantaneous multi-channel photodetector MCPD1000) manufactured by Otsuka Denshi Kogyo Co.
ε(120): Absorbancy of the polymer using light of a maximum absorption wavelength after it was irradiated under the above-mentioned conditions for 120 seconds.
ε(0): Absorbancy of the polymer that has not been irradiated using light of a wavelength same as the maximum absorption wavelength of light with which the polymer was irradiated.
ε(120)-ε(0): Color density
(§2) Color fading rate [t1/2 ]: Time required by the polymer irradiated for 120 seconds until the absorbancy decreases down to one-half of [ε(120)-ε(0)]. Durability [T1/2 ]: Time required until the absorbency at the maximum absorption wavelength decreases down to 1/2 of the initial absorbency as measured by using a xenon fadometer FAC-25AX-HC manufactured by Suga Shikenki Co.
(§3) The photochromic polymers were obtained in the same manner as described above but using the compounds obtained in Examples 2 to 33 as chromene compounds. For the purpose of comparison, properties of the compounds represented by the following formulas (A), (B), (D) and (E) were also shown in Table 3. [drawing 110]

[2] = Durability T1/2 by xenon fadometer FAC-25AX-HC; type: physicochemical; details: in polymer
Protocol: as §1, §2, §3

Color density ε(120)-ε(0) [1] | Color fading rate t1/2: time until absorbancy decreases to one-half of [ε(120)-ε(0)] [1] [min] | ε(0): absorbancy of the polymer not irradiated (initial color) [1] | Maximum absorption wavelength λMax (developed color tone) [1] [nm] | Durability T1/2: time until absorbancy at maximum absorption wavelength decreases to 1/2 of the initial [2] [h] | Structure (SMILES)
0.86 | 1.25 | 0.26 | 514 | 485 | Cc1csc(C2(c3scc(C)c3C)C=Cc3c(ccc4ccccc34)O2)c1C [E, reference compound]
0.52 | 0.667 | 0.04 | 436 | 460 | C1=CC(c2ccccc2)(c2ccccc2)Oc2ccc3ccccc3c21 [A, reference compound]
0.51 | 0.7 | 0.04 | 466 | 490 | C1=CC(c2ccccc2)(c2cccs2)Oc2ccc3ccccc3c21 (stereo not shown) [D, reference compound]
1.23 | 1.4 | 0.05 | 502 | 470 | COc1ccc2c3c(ccc2c1)OC(c1cccs1)(c1cccc2ccccc12)C=C3 (stereo not shown) [Compound 17]
1.18 | 1.17 | 0.04 | 450 | 495 | Fc1c(C2(c3ccsc3)C=Cc3c(ccc4ccccc34)O2)ccc2ccccc12 (stereo not shown) [Compound 30]
1.50 | 1.2 | 0.04 | 456 | 510 | Fc1c(C2(c3cccs3)C=Cc3c(ccc4ccccc34)O2)ccc2ccccc12 (stereo not shown) [Compound 1]
1.02 | 1.03 | 0.07 | 480 | 490 | C1=CC(c2ncco2)(c2csc3ccccc23)Oc2ccc3cc(Cc4ccccc4)ccc3c21 (stereo not shown) [Compound 13]
1.12 | 1.08 | 0.05 | 458 | 480 | N#Cc1cc(Cl)c(C2(c3ccoc3)C=Cc3c(ccc4ccccc34)O2)s1 (stereo not shown) [Compound 24]
1.46 | 1.25 | 0.06 | 490 | 450 | COc1ccc2c3c(ccc2c1)OC(c1cncs1)(c1cscc1C)C=C3 (stereo not shown) [Compound 19]
1.10 | 0.983 | 0.07 | 486 | 490 | C1=CC(c2ccc3ccccc3c2)(c2ccco2)Oc2ccc3ccccc3c21 (stereo not shown) [Compound 4]

More lines, now with the values behind:

Structure (SMILES) | Color density ε(120)-ε(0) [1] | Color fading rate t1/2: time until absorbancy decreases to one-half of [ε(120)-ε(0)] [1] [min] | ε(0): absorbancy of the polymer not irradiated (initial color) [1] | Maximum absorption wavelength λMax (developed color tone) [1] [nm] | Durability T1/2: time until absorbancy at maximum absorption wavelength decreases to 1/2 of the initial [2] [h]
CC(=O)Oc1ccc2c3c(ccc2c1)OC(c1ccc(C)s1)(c1cccc2ccccc12)C=C3 (stereo not shown) [Compound 20] | 1.42 | 1.48 | 0.05 | 506 | 480
C1=CC(c2ccco2)(c2cccc3ccccc23)Oc2ccc3ccccc3c21 (stereo not shown) [Compound 3] | 1.49 | 1.38 | 0.08 | 496 | 480
CC(C)(C)Oc1ccc2ccc3c(c2c1)C=CC(c1cccs1)(c1ccc2ccccc2c1Cl)O3 (stereo not shown) [Compound 21] | 1.35 | 1.17 | 0.05 | 450 | 470
Fc1ccsc1C1(c2ccc3ccccc3c2)C=Cc2c(ccc3ccccc23)O1 (stereo not shown) [Compound 18] | 1.15 | 1.13 | 0.04 | 456 | 505
COc1cc2c(c3ccccc13)C=CC(c1cc(Cl)c3ccccc3c1)(c1cc3ccccc3s1)O2 (stereo not shown) [Compound 29] | 1.30 | 1.37 | 0.12 | 440 | 480
COc1ccc2ccc3c(c2c1)C=CC(c1ccco1)(c1coc2ccccc12)O3 (stereo not shown) [Compound 14] | 1.06 | 1 | 0.07 | 484 | 480
COc1ccc2c3c(ccc2c1)OC(c1ccc2ccccc2c1)(c1cnco1)C=C3 (stereo not shown) [Compound 11] | 1.36 | 1.23 | 0.05 | 476 | 490
Cn1cccc1C1(c2ccc3ccccc3c2)C=Cc2c(ccc3ccccc23)O1 (stereo not shown) [Compound 8] | 1.00 | 1 | 0.06 | 486 | 440
C1=CC(c2ccc3ccccc3c2)(c2nccs2)Oc2ccc3ccccc3c21 (stereo not shown) [Compound 16] | 1.09 | 0.7 | 0.06 | 466 | 485
C1=CC(c2ccco2)(c2cc3ccccc3o2)Oc2ccc3ccccc3c21 (stereo not shown) [Compound 25] | 1.23 | 0.983 | 0.06 | 492 | 540
CCOc1c(C2(c3ccco3)C=Cc3c(ccc4cc(OC)c(C(C)=O)cc34)O2)ccc2ccccc12 (stereo not shown) [Compound 12] | 1.34 | 1.1 | 0.08 | 510 | 450
Fc1cc2ccccc2cc1C1(c2cccs2)C=Cc2c(ccc3ccccc23)O1 (stereo not shown) [Compound 33] | 1.11 | 1.13 | 0.04 | 460 | 495
C1=CC(c2ccoc2)(c2ccco2)Oc2ccc3ccccc3c21 (stereo not shown) [Compound 5] | 1.11 | 0.833 | 0.07 | 466 | 540

Source: patent US5808100A, “Chromene compounds and photochromic materials” (Tokuyama Corporation, priority 1995, dated 1998)
